Measured values from patent US20040063626A1 (priority 2000, published 2004).

System: C57BL/6 mice
Assay: Hair regrowth test on shaved backs of C57BL/6 mice
Type: in vivo
Conditions: 100 μl (0.1% w/v) applied over hair removed area once a day for 30 days; female C57BL/6 mice
Source text: C57BL/6 mice (female), 42˜49 days old, were used in this test.
First of all, mice were removed of hair on their backs using an electric shaver, and weighed. The mice were divided into several groups with weights equally distributed. […] The degree of hair growth was observed by naked eye and the back sides of the mice were photographed.

Substance	degree of hair growth observed by naked eye (hair regrowth effect)
Cyclosporin A 4,7-bis(thioamide)	no significant effect
Cyclosporin A 4-thioamide	no significant effect
